The values that follow are results of earlier work, collected in patent US20030232417A1, “Process” (priority 2001, published 2003).

The data set deals with fungi. Conditions: limited number of fungi tested.

With `O=C1C=CCOC1(O)CO` (stereo not shown) [microthecin, 2-hydroxy-2-(hydroxymethyl)-2H-pyran-3(6H)-one], the antifungal activity entry is “antifungal against a limited number of fungi tested”.
